Source: patent US9273057B2 (Bristol-Myers Squibb Company, priority 2012, dated 2016)
Structures can show the parent of a compound that is named as a salt.

Molecular target: CK2A1 (CK2α/β) (Homo sapiens, UniProt P68400)
Assay: CK2 kinase assay, CK2A1 (CK2α/β)
Assay type: biochemical
Settings: Table A; read-out: CK2A1 (CK2α/β) (IC50)

CK2A1 (CK2α/β), sequence (P68400 whole entry, species assumed): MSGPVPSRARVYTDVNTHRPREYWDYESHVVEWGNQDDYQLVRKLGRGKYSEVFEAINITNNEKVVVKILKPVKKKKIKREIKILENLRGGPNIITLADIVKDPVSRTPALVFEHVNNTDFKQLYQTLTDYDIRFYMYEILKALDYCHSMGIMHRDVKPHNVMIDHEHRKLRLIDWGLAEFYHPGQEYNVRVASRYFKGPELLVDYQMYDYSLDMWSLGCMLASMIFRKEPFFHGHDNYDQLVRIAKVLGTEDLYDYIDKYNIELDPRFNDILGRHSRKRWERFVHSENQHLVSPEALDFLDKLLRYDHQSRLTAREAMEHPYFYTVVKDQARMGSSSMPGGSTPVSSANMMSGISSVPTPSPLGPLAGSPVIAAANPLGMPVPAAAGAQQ
CK2A1 (CK2α/β), sequence (P67870 whole entry partner, species assumed): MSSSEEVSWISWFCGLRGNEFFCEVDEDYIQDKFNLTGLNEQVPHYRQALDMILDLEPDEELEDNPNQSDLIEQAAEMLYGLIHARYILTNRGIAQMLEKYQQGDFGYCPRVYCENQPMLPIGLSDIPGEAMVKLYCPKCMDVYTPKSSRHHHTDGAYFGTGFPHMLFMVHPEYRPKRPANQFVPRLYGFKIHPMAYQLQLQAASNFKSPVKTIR

Row | Structure (SMILES) | IC50 [nM]
1 | CCNc1nc(Nc2cc(C#N)cc(N3CC[C@@H](NC(=O)OC)[C@H](OC(=O)[C@@H](N)CCCN)C3)c2Cl)nn2c(C#N)cnc12 [Example 811, (S)-(3R,4R)-1-(2-chloro-5-cyano-3-((7-cyano-4-(ethylamino)imidazo[2,1-f][1,2,4]triazin-2-yl)amino)phenyl)-4-((methoxycarbonyl)amino)piperidin-3-yl 2,5-diaminopentanoate dihydrochloride] | 1.88
2 | CCNc1nc(Nc2cc(C#N)cc(N3CCOC(C(C)(C)O)C3)c2Cl)nn2c(C#N)cnc12 (racemic) [Example 361, (+/−) 2-((2-chloro-5-cyano-3-(2-(1-hydroxy-1-methylethyl)-4-morpholinyl)phenyl)amino)-4-(ethylamino)imidazo[2,1-f][1,2,4]triazine-7-carbonitrile] | 0.85
3 | N#Cc1cc(Nc2nc(NC3CC3)c3ncc(C#N)n3n2)c(Cl)c(N2CCN(C3CN(C(=O)C(F)F)C3)CC2)c1 [Example 491, 2-[(2-chloro-5-cyano-3-{4-[1-(2,2-difluoroacetyl)azetidin-3-yl]piperazin-1-yl}phenyl)amino]-4-(cyclopropylamino)imidazo[2,1-f][1,2,4]triazine-7-carbonitrile] | 1.33
4 | CC(C)(N)CC(=O)N1CC(N2CCN(c3cc(C#N)cc(Nc4nc(NC5CC5)c5ncc(C#N)n5n4)c3Cl)CC2)C1 [Example 501, 2-[(3-{4-[1-(3-amino-3-methylbutanoyl)azetidin-3-yl]piperazin-1-yl}-2-chloro-5-cyanophenyl)amino]-4-(cyclopropylamino)imidazo[2,1-f][1,2,4]triazine-7-carbonitrile] | 2.64
5 | COC(=O)N[C@H]1CN(c2cc(C#N)cc(Nc3nc(NC4CC4)c4ncc(C#N)n4n3)c2Cl)C[C@H]1OC [Example 14, methyl ((3S,4R)-1-(2-chloro-5-cyano-3-((7-cyano-4-(cyclopropylamino)imidazo [2,1-f][1,2,4]triazin-2-yl)amino)phenyl)-4-methoxy-3-pyrrolidinyl)carbamate] | 0.7
6 | CC(CCc1cc(Cl)c(Nc2nc(NC3CC3)c3ncc(C#N)n3n2)cc1C#N)N1CC(O)C1 (centres unmarked) [Example 724, 2-({2-chloro-5-cyano-4-[3-(3-hydroxyazetidin-1-yl)butyl]phenyl}amino)-4-(cyclopropylamino)imidazo [2,1-f][1,2,4]triazine-7-carbonitrile] | 1.51
7 | CC1(C(=O)N2CC(N3CCN(c4cc(C#N)cc(Nc5nc(NC6CC6)c6ncc(C#N)n6n5)c4Cl)CC3)C2)COC1 [Example 522, 2-[(2-chloro-5-cyano-3-{4-[1-(3-methyloxetane-3-carbonyl)azetidin-3-yl]piperazin-1-yl}phenyl)amino]-4-(cyclopropylamino)imidazo[2,1-f][1,2,4]triazine-7-carbonitrile] | 3.69
8 | N#Cc1cnc2c(NC3CC3)nc(Nc3cc(C(F)F)cc(N4CCN(C5CS(=O)(=O)C5)CC4)c3Cl)nn12 [Example 272, 2-((2-chloro-5-(difluoromethyl)-3-(4-(1,1-dioxidothietan-3-yl)piperazin-1-yl)phenyl)amino)-4-(cyclopropylamino)imidazo[2,1-f][1,2,4]triazine-7-carbonitrile] | 0.58
9 | N#Cc1cc(CNC2CCOCC2)c(Cl)c(Nc2nc(NC3CC3)c3ncc(C#N)n3n2)c1 [Example 664, 2-((2-chloro-5-cyano-3-(((tetrahydro-2H-pyran-4-yl)amino)methyl)phenyl)amino)-4-(cyclopropylamino)imidazo[2,1-f][1,2,4]triazine-7-carbonitrile] | 0.98
10 | CCNc1nc(Nc2cc(C#N)cc(N3CC[C@@H]4[C@@H](C3)OC(=O)N4C3COC3)c2Cl)nn2c(C#N)cnc12 [Example 839, 2-((2-chloro-5-cyano-3-((3aR,7aR)-1-(oxetan-3-yl)-2-oxohexahydrooxazolo[5,4-c]pyridin-5(2H)-yl)phenyl)amino)-4-(ethylamino)imidazo[2,1-f][1,2,4]triazine-7-carbonitrile] | 1.19
11 | CCNC(=O)NCC1CN(c2cc(C#N)cc(Nc3nc(NC4CC4)c4ncc(C#N)n4n3)c2Cl)CCO1 (centres unmarked) [Example 711, 1-{[4-(2-chloro-5-cyano-3-{[7-cyano-4-(cyclopropylamino)imidazo[2,1-f][1,2,4]triazin-2-yl]amino}phenyl)morpholin-2-yl]methyl}-3-ethylurea] | 2.64
12 | CCNc1nc(Nc2cc(C#N)cc(N3CC[C@@H](NC(=O)OC)[C@H](OC(=O)[C@@H]4CCCN4)C3)c2Cl)nn2c(C#N)cnc12 [Example 813, (S)-(3R,4R)-1-(2-chloro-5-cyano-3-((7-cyano-4-(ethylamino)imidazo[2,1-f][1,2,4]triazin-2-yl)amino)phenyl)-4-((methoxycarbonyl)amino)piperidin-3-yl pyrrolidine-2-carboxylate hydrochloride] | 4.48
13 | CC(C(N)=O)N1CC2(CCN(c3cc(C#N)cc(Nc4nc(NC5CC5)c5ncc(C#N)n5n4)c3Cl)CC2)C1 (racemic) [Example 802, (+/−)-2-(7-(2-chloro-5-cyano-3-((7-cyano-4-(cyclopropylamino)imidazo[2,1-f][1,2,4]triazin-2-yl)amino)phenyl)-2,7-diazaspiro[3.5]nonan-2-yl)propanamide] | 6.9
14 | N#Cc1cc(Nc2nc(NC3CC3)c3ncc(C#N)n3n2)c(Cl)c(N2CCOC(C(=O)N3CCOCC3)C2)c1 (racemic) [Example 300, (+/−)2-((2-chloro-5-cyano-3-(2-(morpholine-4-carbonyl)morpholino)phenyl)amino)-4-(cyclopropylamino)imidazo[2,1-J][1,2,4]triazine-7-carbonitrile] | 1.62
15 | CNCCOC(=O)N1CCN(c2cc(C#N)cc(Nc3nc(NC4CC4)c4ncc(C#N)n4n3)c2Cl)CC1 [Example 71, 2-(methylamino)ethyl 4-(2-chloro-5-cyano-3-((7-cyano-4-(cyclopropylamino)imidazo[2,1-f] [1,2,4]triazin-2-yl)amino)phenyl)-1-piperazinecarboxylate] | 0.76

Continued by falling IC50, values first:

Row | IC50 [nM] | Structure (SMILES)
16 | 5.42 | CC(C)(C)[C@H](N)C(=O)N1CC(N2CCN(c3cc(C#N)cc(Nc4nc(NC5CC5)c5ncc(C#N)n5n4)c3Cl)CC2)C1 [Example 505, 2-{[3-(4-{1-[(2S)-2-amino-3,3-dimethylbutanoyl]azetidin-3-yl}piperazin-1-yl)-2-chloro-5-cyanophenyl]amino}-4-(cyclopropylamino)imidazo[2,1-f][1,2,4]triazine-7-carbonitrile]
17 | 4.09 | CC1CN(C2CCN(c3cc(C#N)cc(Nc4nc(NC5CC5)c5ncc(C#N)n5n4)c3Cl)CC2)CC(C)O1 (racemic) [Example 109, (+/−) 2-((2-chloro-5-cyano-3-(4-(2,6-dimethyl-4-morpholinyl)-1-piperidinyl)phenyl)amino)-4-(cyclopropylamino)imidazo [2,1-f][1,2,4]triazine-7-carbonitrile]
18 | 3.68 | CCNc1nc(Nc2cc(C#N)cc(N3CCN(C4COC4)CC3)c2F)nn2c(C#N)cnc12 [Example 556, 2-((5-cyano-2-fluoro-3-(4-(oxetan-3-yl)piperazin-1-yl)phenyl)amino)-4-(ethylamino)imidazo[2,1-f][1,2,4]triazine-7-carbonitrile]
19 | 1.74 | [2H]C1(N2CCC(c3cc(C#N)cc(Nc4nc(NCC)c5ncc(C#N)n5n4)c3Cl)CC2)COC1 [Example 350, 2-((2-chloro-5-cyano-3-(1-(3-~2~H)-3-oxetanyl-4-piperidinyl)phenyl)amino)-4-(ethylamino)imidazo[2,1-f][1,2,4]triazine-7-carbonitrile]
20 | 1.02 | C[C@H](O)CN1CCC(c2cc(C#N)cc(Nc3nc(NC4CC4)c4ncc(C#N)n4n3)c2Cl)CC1 [Example 216, (S)-2-(2-chloro-5-cyano-3-(1-(2-hydroxypropyl)piperidin-4-yl)phenylamino)-4-(cyclopropylamino)imidazo[1,2-f][1,2,4]triazine-7-carbonitrile]
21 | 0.88 | N#Cc1cc(Nc2nc(NC3CC3)c3ncc(C#N)n3n2)c(Cl)c(N2CCC3C(CCN3C[C@@H](O)CF)C2)c1 (stereo partly drawn) [Example 448, 2-((2-chloro-5-cyano-3-(1-((R)-3-fluoro-2-hydroxypropyl)hexahydro-1H-pyrrolo[3,2-c]pyridin-5(6H)-yl)phenyl)amino)-4-(cyclopropylamino)imidazo[2,1-f][1,2,4]triazine-7-carbonitrile]
22 | 0.82 | N#Cc1cc(Nc2nc(NC3CC3)c3ncc(C#N)n3n2)c(Cl)c(N2CC[C@@H]3[C@@H](CCN3[C@H]3CS(=O)(=O)C[C@@H]3O)C2)c1 [Example 452, 2-((2-chloro-5-cyano-3-(1-((3R,4R)-4-hydroxy-1,1-dioxidotetrahydrothiophen-3-yl)hexahydro-1H-pyrrolo[3,2-c]pyridin-5(6H)-yl)phenyl)amino)-4-(cyclopropylamino)imidazo[2,1-f][1,2,4]triazine-7-carbonitrile]
23 | 0.74 | CN1CCN2CCN(c3cc(C#N)cc(Nc4nc(NC5CC5)c5ncc(C#N)n5n4)c3Cl)CC2C1=O (racemic) [Example 626, (+/−)-2-((2-chloro-5-cyano-3-(8-methyl-9-oxohexahydro-1H-pyrazino[1,2-a]pyrazin-2(6H)-yl)phenyl)amino)-4-(cyclopropylamino)imidazo[2,1-f][1,2,4]triazine-7-carbonitrile]
24 | 0.47 | CC(O)c1cc(C#N)cc(Nc2nc(NC3CC3)c3ncc(C#N)n3n2)c1Cl (racemic) [Example 677, (+/−)-2-((2-chloro-5-cyano-3-(1-hydroxyethyl)phenyl)amino)-4-(cyclopropylamino)imidazo[2,1-f][1,2,4]triazine-7-carbonitrile]
25 | 0.37 | CN(C)C(=O)C1CN(c2cc(C#N)cc(Nc3nc(NC4CC4)c4ncc(C#N)n4n3)c2Cl)CCN1CC(O)CF (single isomer, unassigned) [Example 315, (+/−) 4-(2-chloro-5-cyano-3-((7-cyano-4-(cyclopropylamino)imidazo [2,1-f][1,2,4]triazin-2-yl)amino)phenyl)-1-(3-fluoro-2-hydroxypropyl)-N,N-dimethyl-2-piperazinecarboxamide]
26 | 0.31 | CN1CCCN(C2CN(c3cc(C#N)cc(Nc4nc(NC5CC5)c5ncc(C#N)n5n4)c3Cl)C2)CC1 [Example 29, 2-((2-chloro-5-cyano-3-(3-(4-methyl-1,4-diazepan-1-yl)-1-azetidinyl)phenyl)amino)-4-(cyclopropylamino)imidazo [2,1-f][1,2,4]triazine-7-carbonitrile]
